Data set [1] is described as follows: Clearance following intravenous infusion, acylated peptides (1-hour infusion, 0.033 mg/kg). The settings on record: rat, in vivo.
The target in another data set is human GCGR (Homo sapiens, UniProt P47871). Nature of the data set: Peptide-receptor mediated cAMP accumulation (LANCE Ultra cAMP) in CHO-K1 cells transfected with human GCGR. Conditions: read-out: GluR pEC50 (converted). The format is cell-based.
For another data set, the target named is human GLP-1R (Homo sapiens, UniProt P43220). Nature of the data set: Peptide-receptor mediated cAMP accumulation (LANCE Ultra cAMP) in CHO-K1 cells transfected with human GLP-1R. The settings on record: Table 7; GLP-1R; read-out: GLP-1R pEC50 (converted). The format is cell-based.
Sequence of human GLP-1R (P43220 24-463): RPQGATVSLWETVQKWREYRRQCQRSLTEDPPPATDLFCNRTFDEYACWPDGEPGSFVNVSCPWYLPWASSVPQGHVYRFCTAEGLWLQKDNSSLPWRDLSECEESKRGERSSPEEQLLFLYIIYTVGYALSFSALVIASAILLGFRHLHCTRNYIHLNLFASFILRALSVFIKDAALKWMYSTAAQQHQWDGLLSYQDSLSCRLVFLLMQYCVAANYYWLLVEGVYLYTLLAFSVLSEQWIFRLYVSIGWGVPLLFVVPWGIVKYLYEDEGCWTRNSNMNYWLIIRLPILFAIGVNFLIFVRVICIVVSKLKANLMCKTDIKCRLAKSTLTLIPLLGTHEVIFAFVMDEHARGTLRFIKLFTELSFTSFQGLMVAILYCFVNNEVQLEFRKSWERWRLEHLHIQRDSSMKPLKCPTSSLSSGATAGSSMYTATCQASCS

*1 amine or outer side, *2 acyl side, *3 side chain or, on linkers, in order; H or OH if unused. Where a SMILES comes first, the peptide text is derived from it. Side-chain parts run from the residue outwards. The star is where a group is joined. γGlu = O=C(O)[C@H](CCC(=O)[*:2])N[*:1]; Palmitoyl = CCCCCCCCCCCCCCCC(=O)*

Sequence of human GCGR (P47871 26-477): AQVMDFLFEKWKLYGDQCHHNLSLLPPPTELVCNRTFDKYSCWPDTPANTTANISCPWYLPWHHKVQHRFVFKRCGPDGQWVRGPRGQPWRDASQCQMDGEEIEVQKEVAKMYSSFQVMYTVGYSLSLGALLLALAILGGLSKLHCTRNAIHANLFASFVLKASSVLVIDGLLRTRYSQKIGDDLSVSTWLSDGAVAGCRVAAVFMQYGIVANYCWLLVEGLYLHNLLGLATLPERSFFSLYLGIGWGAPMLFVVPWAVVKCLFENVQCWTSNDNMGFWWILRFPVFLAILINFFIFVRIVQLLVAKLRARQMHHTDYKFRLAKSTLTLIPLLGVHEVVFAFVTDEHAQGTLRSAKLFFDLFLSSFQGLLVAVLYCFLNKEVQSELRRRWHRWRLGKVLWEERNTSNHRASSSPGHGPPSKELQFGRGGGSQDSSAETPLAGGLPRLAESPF

Turning to `CCCCCCCCCCCCCCCC(=O)N[C@@H](CCC(=O)NCCCC[C@H](NC(=O)[C@H](CC(=O)O)NC(=O)[C@H](CC(C)C)NC(=O)[C@H](Cc1ccc(O)cc1)NC(=O)[C@H](CCCCN)NC(=O)[C@H](CO)NC(=O)[C@H](Cc1ccc(O)cc1)NC(=O)[C@H](CC(=O)O)NC(=O)[C@H](CO)NC(=O)[C@@H](NC(=O)[C@H](Cc1ccccc1)NC(=O)[C@@H](NC(=O)CNC(=O)[C@H](Cc1c[nH]cn1)NC(=O)[C@H](CO)NC(=O)[C@@H](N)Cc1ccc(O)cc1)[C@@H](C)O)[C@@H](C)O)C(=O)N[C@@H](CCCCN)C(=O)N[C@@H](Cc1ccc(O)cc1)C(=O)N[C@@H](C)C(=O)N[C@@H](CCC(N)=O)C(=O)N[C@@H](CCC(=O)O)C(=O)N[C@@H](Cc1ccccc1)C(=O)N[C@H](C(=O)NC(C)(C)C(=O)N[C@@H](Cc1c[nH]c2ccccc12)C(=O)N[C@@H](CC(C)C)C(=O)N[C@@H](CCC(=O)O)C(=O)N[C@@H](CC(=O)O)C(=O)N[C@@H](CCC(=O)O)C(=O)N1CCC[C@H]1C(=O)N[C@@H](CO)C(=O)N[C@@H](CO)C(=O)NCC(=O)N[C@@H](C)C(=O)N1CCC[C@H]1C(=O)N1CCC[C@H]1C(=O)N1CCC[C@H]1C(=O)N[C@@H](CO)C(=O)O)C(C)C)C(=O)O` [Compound B3], in data set [1], the clearance is 18.8 mL/min/kg and the half-life is 1.79 h. Also, the EC50 on human GCGR was 0.00398 nM. In addition, the EC50 at human GLP-1R was more than 1000 nM.
On the same counts, the results for `CCCCCCCCCCCCCCCC(=O)N[C@@H](CCC(=O)NCCCC[C@H](NC(=O)[C@H](CO)NC(=O)[C@H](CO)NC(=O)[C@@H]1CCCN1C(=O)[C@H](CCC(=O)O)NC(=O)[C@H](CC(=O)O)NC(=O)[C@H](CCC(=O)O)NC(=O)[C@H](CC(C)C)NC(=O)[C@H](Cc1c[nH]c2ccccc12)NC(=O)C(C)(C)NC(=O)[C@@H](NC(=O)[C@H](Cc1ccccc1)NC(=O)[C@H](CCC(=O)O)NC(=O)[C@H](CCC(N)=O)NC(=O)[C@H](C)NC(=O)[C@H](CO)NC(=O)[C@H](CCCCN)NC(=O)C(C)(C)NC(=O)[C@H](CC(=O)O)NC(=O)[C@H](CC(C)C)NC(=O)[C@H](Cc1ccc(O)cc1)NC(=O)[C@H](CCCCN)NC(=O)[C@H](CO)NC(=O)[C@H](Cc1ccc(O)cc1)NC(=O)[C@H](CC(=O)O)NC(=O)[C@H](CO)NC(=O)[C@@H](NC(=O)[C@H](Cc1ccccc1)NC(=O)[C@@H](NC(=O)CNC(=O)[C@H](Cc1c[nH]cn1)NC(=O)[C@H](CO)NC(=O)[C@@H](N)Cc1ccc(O)cc1)[C@@H](C)O)[C@@H](C)O)C(C)C)C(=O)N[C@@H](C)C(=O)N1CCC[C@H]1C(=O)N1CCC[C@H]1C(=O)N1CCC[C@H]1C(=O)N[C@@H](CO)C(=O)O)C(=O)O` [Compound B9] are 0.594 mL/min/kg, 4.98 h, 0.00794 nM and more than 1000 nM.
On the same counts, the results for `CC(C)C[C@H](NC(=O)[C@H](Cc1c[nH]c2ccccc12)NC(=O)[C@H](CCCCNC(=O)COCCOCCNC(=O)COCCOCCNC(=O)CC[C@H](NC(=O)CCCCCCCCCCCCCCCCC(=O)O)C(=O)O)NC(=O)[C@@H](NC(=O)[C@H](Cc1ccccc1)NC(=O)[C@H](CCC(=O)O)NC(=O)[C@H](CCC(N)=O)NC(=O)[C@H](C)NC(=O)[C@H](CO)NC(=O)[C@H](CCCCN)NC(=O)C(C)(C)NC(=O)[C@H](CC(=O)O)NC(=O)[C@H](CC(C)C)NC(=O)[C@H](Cc1ccc(O)cc1)NC(=O)[C@H](CCCCN)NC(=O)[C@H](CO)NC(=O)[C@H](Cc1ccc(O)cc1)NC(=O)[C@H](CC(=O)O)NC(=O)[C@H](CO)NC(=O)[C@@H](NC(=O)[C@H](Cc1ccccc1)NC(=O)[C@@H](NC(=O)CNC(=O)[C@H](Cc1c[nH]cn1)NC(=O)[C@H](CO)NC(=O)[C@@H](N)Cc1ccc(O)cc1)[C@@H](C)O)[C@@H](C)O)C(C)C)C(=O)N[C@@H](CCC(=O)O)C(=O)N[C@@H](CC(=O)O)C(=O)N[C@@H](CCC(=O)O)C(=O)N1CCC[C@H]1C(=O)N[C@@H](CO)C(=O)N[C@@H](CO)C(=O)NCC(=O)N[C@@H](C)C(=O)N1CCC[C@H]1C(=O)N1CCC[C@H]1C(=O)N1CCC[C@H]1C(=O)N[C@@H](CO)C(=O)O` [Compound B14] are 2.65 mL/min/kg, 13.9 h, 0.501 nM and more than 1000 nM.
Take `CC(C)C[C@H](NC(=O)[C@H](Cc1ccc(O)cc1)NC(=O)[C@H](CCCCN)NC(=O)[C@H](CO)NC(=O)[C@H](Cc1ccc(O)cc1)NC(=O)[C@H](CC(=O)O)NC(=O)[C@H](CO)NC(=O)[C@@H](NC(=O)[C@H](Cc1ccccc1)NC(=O)[C@@H](NC(=O)CNC(=O)[C@H](Cc1c[nH]cn1)NC(=O)[C@H](CO)NC(=O)[C@@H](N)Cc1ccc(O)cc1)[C@@H](C)O)[C@@H](C)O)C(=O)N[C@@H](CC(=O)O)C(=O)N[C@@H](CCCCNC(=O)COCCOCCNC(=O)COCCOCCNC(=O)CC[C@H](NC(=O)CCCCCCCCCCCCCCCCC(=O)O)C(=O)O)C(=O)N[C@@H](CCCCN)C(=O)N[C@@H](CO)C(=O)N[C@@H](C)C(=O)N[C@@H](CCC(N)=O)C(=O)N[C@@H](CCC(=O)O)C(=O)N[C@@H](Cc1ccccc1)C(=O)N[C@H](C(=O)NC(C)(C)C(=O)N[C@@H](Cc1c[nH]c2ccccc12)C(=O)N[C@@H](CC(C)C)C(=O)N[C@@H](CCC(=O)O)C(=O)N[C@@H](CC(=O)O)C(=O)N[C@@H](CCC(=O)O)C(=O)N1CCC[C@H]1C(=O)N[C@@H](CO)C(=O)N[C@@H](CO)C(=O)NCC(=O)N[C@@H](C)C(=O)N1CCC[C@H]1C(=O)N1CCC[C@H]1C(=O)N1CCC[C@H]1C(=O)N[C@@H](CO)C(=O)O)C(C)C` [Compound B15]: in data set [1], the clearance came out at 0.457 mL/min/kg and the half-life is 9.34 h. In addition, at human GCGR, the EC50 is 0.126 nM. Also, the EC50 at human GLP-1R was more than 1000 nM.
For `CCCCCCCCCCCCCCCC(=O)N[C@@H](CCC(=O)NCCCC[C@H](NC(=O)[C@H](CO)NC(=O)[C@H](CCCCN)NC(=O)[C@@H]1CCCN1C(=O)[C@H](CCC(=O)O)NC(=O)[C@H](CC(=O)O)NC(=O)[C@H](CCC(=O)O)NC(=O)[C@H](CC(C)C)NC(=O)[C@H](Cc1c[nH]c2ccccc12)NC(=O)[C@H](CCCCN)NC(=O)[C@@H](NC(=O)[C@H](Cc1ccccc1)NC(=O)[C@H](CCC(=O)O)NC(=O)[C@H](CCC(N)=O)NC(=O)[C@H](C)NC(=O)[C@H](CCCNC(=N)N)NC(=O)[C@H](C)NC(=O)[C@H](C)NC(=O)[C@H](CC(=O)O)NC(=O)[C@H](CC(C)C)NC(=O)[C@H](Cc1ccc(O)cc1)NC(=O)[C@H](CCCCN)NC(=O)[C@H](CO)NC(=O)[C@H](Cc1ccc(O)cc1)NC(=O)[C@H](CC(=O)O)NC(=O)[C@H](CO)NC(=O)[C@@H](NC(=O)[C@H](Cc1ccccc1)NC(=O)[C@@H](NC(=O)CNC(=O)[C@H](CCC(N)=O)NC(=O)[C@H](CO)NC(=O)[C@@H](N)Cc1ccc(O)cc1)[C@@H](C)O)[C@@H](C)O)C(C)C)C(=O)N[C@@H](CO)C(=O)N1CCC[C@H]1C(=O)N1CCC[C@H]1C(=O)N1CCC[C@H]1C(=O)N[C@@H](CO)C(N)=O)C(=O)O` [Compound B33] (H-YSQGTFTSDYSKYLDAARAQEFVKWLEDEPKSK([γGlu-Palmitoyl])SPPPS-NH2) the same measures were 6.96 mL/min/kg, 0.429 h, 0.0251 nM and more than 1000 nM.
For `CCCCCCCCCCCCCCCC(=O)N[C@@H](CCC(=O)NCCCC[C@H](NC(=O)[C@H](CO)NC(=O)[C@H](CO)NC(=O)[C@@H]1CCCN1C(=O)[C@H](CCC(=O)O)NC(=O)[C@H](CC(=O)O)NC(=O)[C@H](CCC(=O)O)NC(=O)[C@H](CC(C)C)NC(=O)[C@H](Cc1c[nH]c2ccccc12)NC(=O)[C@H](CCCCN)NC(=O)[C@@H](NC(=O)[C@H](Cc1ccccc1)NC(=O)[C@H](CCC(=O)O)NC(=O)[C@H](CCC(N)=O)NC(=O)[C@H](C)NC(=O)[C@H](CCCNC(=N)N)NC(=O)[C@H](C)NC(=O)[C@H](CO)NC(=O)[C@H](CC(=O)O)NC(=O)[C@H](CC(C)C)NC(=O)[C@H](Cc1ccc(O)cc1)NC(=O)[C@H](CCCCN)NC(=O)[C@H](CO)NC(=O)[C@H](Cc1ccc(O)cc1)NC(=O)[C@H](CC(=O)O)NC(=O)[C@H](CO)NC(=O)[C@@H](NC(=O)[C@H](Cc1ccccc1)NC(=O)[C@@H](NC(=O)CNC(=O)[C@H](Cc1c[nH]cn1)NC(=O)[C@H](CO)NC(=O)[C@@H](N)Cc1ccc(O)cc1)[C@@H](C)O)[C@@H](C)O)C(C)C)C(=O)N[C@@H](C)C(=O)N1CCC[C@H]1C(=O)N1CCC[C@H]1C(=O)N1CCC[C@H]1C(=O)N[C@@H](CO)C(N)=O)C(=O)O` [Compound B41] (H-YSHGTFTSDYSKYLDSARAQEFVKWLEDEPSSK([γGlu-Palmitoyl])APPPS-NH2) the same measures were 4.86 mL/min/kg, 1.09 h, 0.0251 nM and more than 1000 nM.

These data come from patent US20240239861A1, “GLUCAGON-RECEPTOR SELECTIVE POLYPEPTIDES AND METHODS OF USE THEREOF” (i2O Therapeutics, Inc., priority 2016, published 2024).
